Data reported in publication PMC8006714 (Chemical Communications (Cambridge, England), 2021).
“Also recorded” adds a separate entry of the source. Where a name gives a salt, the structure may show the parent alone. Read-outs that look alike come from different tables or passages of the source.

Experiments:
SARS-CoV-2 M^pro [1] = biological target: T1, SARS-CoV-2 M^pro (Severe acute respiratory syndrome coronavirus 2, UniProt P0DTD1); assay: biochemical; type: biochemical
SARS-CoV-2 M^pro [2] = biological target: T1, SARS-CoV-2 M^pro; type: binding; conditions: for covalent modification of M^pro (protein observed SPE-MS): 1 μM M^pro, 20 μM inhibitor, 20 mM HEPES pH 7.5, 50 mM NaCl
[3] = read-out: % Mpro inhibition at 20 µM
[4] = read-out: % Mpro inhibition at 20 µM, LOPAC1280 library, 20 µM compound, […] Mpro, 2.0 µM TSAVLQ/SGFRK-NH2
[5] = read-out: % Mpro inhibition at 20 µM, library of FDA-approved small molecules, 20 µM compound, […] Mpro, 2.0 µM TSAVLQ/SGFRK-NH2

Br.NC1CCc2cc(O)c(O)cc2C1 (racemic) [(±)-2-Amino-6,7-dihydroxy-1,2,3,4-tetrahydronaphthalene hydrobromide]
% Mpro inhibition at 20 µM (SARS-CoV-2 M^pro [1]): 88.3%

O=C1C=CC(=O)C=C1 [1,4-Benzoquinone]
inhibition at 20 µM (SARS-CoV-2 M^pro [1]; [3]): 99.3%

O=c1oc(Cl)c(Cl)c2ccccc12 [3,4-Dichloroisocoumarin]
inhibition at 20 µM (SARS-CoV-2 M^pro [1]; [3]): 80.4%

O=Nc1ccc2oc(=O)ccc2c1 [6-Nitroso-1,2-benzopyrone]
% Mpro inhibition at 20 µM (SARS-CoV-2 M^pro [1]): 99.5%

Br.CCCN1CCc2cc(O)cc3c2[C@H]1Cc1ccc(O)c(O)c1-3 [(R)-(−)-2,10,11-Trihydroxy-n-propylnoraporphine hydrobromide]
% Mpro inhibition at 20 µM (SARS-CoV-2 M^pro [1]): 98.3%

CCCN1CCc2cccc3c2[C@H]1Cc1ccc(O)c(O)c1-3.Cl [(R)-(−)-Propylnorapomorphine hydrochloride]
% Mpro inhibition at 20 µM (SARS-CoV-2 M^pro [1]): 100.0%

N.S=C(S)N1CCCC1 [Ammonium pyrrolidinedithiocarbamate]
% Mpro inhibition at 20 µM (SARS-CoV-2 M^pro [1]): 95.1%

OC[C@H]1O[C@H]([S-])[C@H](O)[C@@H](O)[C@@H]1O.[Au+] [Aurothioglucose]
% Mpro inhibition at 20 µM (SARS-CoV-2 M^pro [1]): 96.6%

Cc1ccc(S(=O)(=O)/C=C/C#N)cc1 [BAY 11-7082]
% Mpro inhibition at 20 µM (SARS-CoV-2 M^pro [1]): 92.0%
covalent modification of M^pro preincubated with N3 (active site selectivity) (SARS-CoV-2 M^pro [2]; 1 μM M^pro preincubated with 3 μM N3, 20 μM inhibitor): multiple adducts observed with unmodified M^pro were diminished; also recorded: to a lesser extent compared to active site free M pro
covalent modification of M^pro (protein observed SPE-MS) (SARS-CoV-2 M^pro [2]): reacts with Mpro at multiple position

CC(C)(C)c1ccc(S(=O)(=O)/C=C/C#N)cc1 [Bay 11-7085]
% Mpro inhibition at 20 µM (SARS-CoV-2 M^pro [1]): 95.0%

S=C=NCc1ccccc1 [Benzyl isothiocyanate]
inhibition at 20 µM (SARS-CoV-2 M^pro [1]; [3]): 95.8%

Oc1cc2c(cc1O)CN(C(=S)NCCc1ccc(Cl)cc1)CCC2 [Capsazepine]
inhibition at 20 µM (SARS-CoV-2 M^pro [1]; [4]): 94.5%

N[C@@H](C(=O)N[C@@H]1C(=O)N2C(C(=O)O)=C(Cl)CS[C@H]12)c1ccccc1 [Cefaclor]
inhibition at 20 µM (SARS-CoV-2 M^pro [1]; [4]): 8.7%

NC(=O)c1cc[n+](CC2=C(C(=O)[O-])N3C(=O)[C@@H](NC(=O)Cc4cccs4)[C@H]3SC2)cc1 [Cefalonium]
inhibition at 20 µM (SARS-CoV-2 M^pro [1]; [3]): 9.2%

C=CC1=C(C(=O)O)N2C(=O)[C@@H](NC(=O)/C(=N\O)c3csc(N)n3)[C@H]2SC1 [Cefdinir]
M^pro inhibition at single concentrations (in words) (SARS-CoV-2 M^pro [1]; 20, 50 and 100 µM β-lactam, 30 min or 60 min preincubation (Fig. S17)): weak time dependent inhibition

CO/N=C(\C(=O)N[C@@H]1C(=O)N2C(C(=O)O)=C(C[N+]3(C)CCCC3)CS[C@H]12)c1csc(N)n1 [Cefepime hydrochloride]
inhibition at 20 µM (SARS-CoV-2 M^pro [1]; [3]): 20.6%

NCc1ccccc1CC(=O)N[C@@H]1C(=O)N2C(C(=O)O)=C(CSc3nnnn3CC(=O)O)CS[C@H]12 [Ceforanide]
inhibition at 20 µM (SARS-CoV-2 M^pro [1]; [3]): 10.2%

CC=CC1=C(C(=O)O)N2C(=O)[C@@H](NC(=O)[C@H](N)c3ccc(O)cc3)[C@H]2SC1 [Cefprozil]
% Mpro inhibition at 20 µM (SARS-CoV-2 M^pro [1]): 57.5%

CO/N=C(\C(=O)N[C@@H]1C(=O)N2C(C(=O)O)=C(CSC(=O)c3ccco3)CS[C@H]12)c1csc(N)n1.Cl [Ceftiofur hydrochloride]
% Mpro inhibition at 20 µM (SARS-CoV-2 M^pro [1]): 65.0%

CC(=O)OCC1=C(C(=O)[O-])N2C(=O)[C@@H](NC(=O)CCCC(N)C(=O)O)[C@H]2SC1.[Na+] (stereo partly shown) [Cephalosporin C sodium]
% Mpro inhibition at 20 µM (SARS-CoV-2 M^pro [1]): 78.3%
M^pro inhibition (in words) (SARS-CoV-2 M^pro [1]): inhibited

COc1ccc2c(c[n+](C)c3c4cc5c(cc4ccc23)OCO5)c1OC [Chelerythrine chloride]
inhibition at 20 µM (SARS-CoV-2 M^pro [1]; [3]): 85.2%

CCN(CC)C(=S)SSC(=S)N(CC)CC [Disulfiram, Tetraethylthiuram disulphide]
inhibition at a fixed 20 μM inhibitor concentration (SARS-CoV-2 M^pro [1]): ≥ 80%
inhibition at 20 µM (SARS-CoV-2 M^pro [1]; [4]): 97.5%
inhibition at 20 µM (SARS-CoV-2 M^pro [1]; [5]): 99.1%

O=c1c2ccccc2[se]n1-c1ccccc1 [Ebselen]
inhibition at 20 µM (SARS-CoV-2 M^pro [1]; [5]): 99.1%
covalent modification of M^pro (protein observed SPE-MS) (SARS-CoV-2 M^pro [2]): covalently reacts multiple times with Mpro
covalent modification of M^pro (protein observed SPE-MS) (SARS-CoV-2 M^pro [2]; listed as ebselen): modifies M^pro in a covalent manner; also recorded: time dependent modification of multiple residues

O=C([O-])c1ccccc1-c1c2cc(I)c(=O)c(I)c-2oc2c(I)c([O-])c(I)cc12.[Na+].[Na+] [Erythrosine sodium]
% Mpro inhibition at 20 µM (SARS-CoV-2 M^pro [1]): 86.5%

NC(N)=Nc1ccc2[nH]c3c(c2c1)C[C@@]1(O)[C@H]2Cc4ccc(O)c5c4[C@@]1(CCN2CC1CC1)[C@H]3O5.O=C(O)C(F)(F)F.O=C(O)C(F)(F)F [Guanidinyl-naltrindole di-trifluoroacetate]
% Mpro inhibition at 20 µM (SARS-CoV-2 M^pro [1]): 99.6%

NC(=O)CI [Iodoacetamide]
% Mpro inhibition at 20 µM (SARS-CoV-2 M^pro [1]): 99.3%

CC(=O)/N=c1/sc(S(N)(=O)=O)nn1C [Methazolamide]
inhibition at 20 µM (SARS-CoV-2 M^pro [1]; [3]): 82.9%
